Assay results reported in patent publication US11974990B2, “TXNIP-TRX complex inhibitors and methods of using the same” (City of Hope, priority 2018, dated 2024).
Where two headings read alike, the source gives them in different places.

Key:
TXNIP-TRX complex [1] = target: T1, TXNIP-TRX complex (Homo sapiens, UniProt Q9H3M7); test: Co-IP using extracts from high glucose treated THP1 cells in the presence of compounds; assay type: biochemical; details: extracts of THP1 cells treated with 25 mM glucose 3 days; compounds added to extract (5 uM)
T1 construct: Co-immunoprecipitation (Co-IP) of TXNIP with TRX in THP 1 monocytes cells treated with compounds under high glucose condition; endogenous in cells; host or cells: THP1 human monocytes cultured in 25 mM glucose
T1 sequence (Q9H3M7 1-391): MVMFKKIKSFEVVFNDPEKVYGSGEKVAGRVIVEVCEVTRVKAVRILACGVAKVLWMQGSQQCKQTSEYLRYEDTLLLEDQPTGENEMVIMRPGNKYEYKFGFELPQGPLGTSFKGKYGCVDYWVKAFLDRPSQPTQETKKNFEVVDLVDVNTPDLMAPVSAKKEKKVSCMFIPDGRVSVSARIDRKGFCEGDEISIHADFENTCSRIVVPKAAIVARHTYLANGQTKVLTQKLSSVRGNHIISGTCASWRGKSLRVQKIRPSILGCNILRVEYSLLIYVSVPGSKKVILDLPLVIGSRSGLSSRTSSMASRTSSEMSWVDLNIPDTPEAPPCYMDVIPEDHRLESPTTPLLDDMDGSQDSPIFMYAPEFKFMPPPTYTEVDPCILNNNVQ
Protocol: Assay 2: Co-IP using extracts from THP 1 cells treated high glucose and in the presence of compounds. In this assay, TXNIP is already highly expressed (because the cells are treated with HG), we assume there is high concentration of TXNIP/TRX complexes in the cell extract. Co-IPs were done in these extracts through adding TRX antibody and compounds. If a compound is able to break the (pre-formed) TXNIP/TRX complex, there will be a reduced signal (band intensity) in the assay.
Co-IP with THP1 high glucose treated extract in the presence of the compounds. THP1 cells were treated with 25 mM glucose for 3 days, the cell extract were prepared. Them 300 ul extract were used for TP. Compounds were added to 5 uM Co-IP were followed according to the Co-IP protocol.
(§1) 1. Transfer the cultured cells from the culture dish to a 15-mL conical tube. 2. Centrifuge at 500×g for 2 min at 4° C. and remove the supernatant. 3. Wash with ice-cold PBS and centrifuge at 500×g for 2 min at 4° C. Remove the supernatant. 4. Repeat Step 3 twice.
5. Resuspend the cell pellet in ice-cold cell lysis buffer (1 mL per 1×10^7 cells) and incubate on ice for 10 min. 6. […]
(§2) Note: Pre-clearing the lysate is recommended to reduce the non-specific binding. However, if the protein is detected by western blotting, pre-clearing may not be necessary unless a contaminating protein is interfering with visualization of the protein of interest. […]

TXNIP = details: as reported in the literature, cited from earlier work
TXNIP-TRX complex [2] = target: T1, TXNIP-TRX complex; test: Co-IP of TXNIP with TRX in THP1 monocytes treated with compounds under high glucose; assay type: cell-based; details: THP1 cells, compounds added to cells in culture overnight, glucose to 25 mM, 72-96 h; anti-TRX IP
Protocol: FIGS. 4A-4B. Co-IP with anti-TRX in THP 1 cells treated with compounds under high glucose condition. THP1 cells were treated by 10 uM compounds over night, then glucose was added up to 25 mM. The cells were cultured for 72-96 h. Cell extracts were prepared using cell extract buffer (Thermo Fisher Scientific) and Co-IP were performed with mouse anti-TRX (abcam).
Assay 1: Co-immunoprecipitation (Co-IP) of TXNIP with TRX in THP 1 monocytes cells treated with compounds under high glucose condition. In this assay, we looked for compounds that can interfere with the interaction between TXNIP and TRX in THP-1 monocytes treated with HG. So here compounds are added to cells in culture. […] So we picked the candidates only if the results are repeatable.
Co-IP with compounds treated THP1 under high glucose condition. THP1 cells were treated with compounds (2.5 uM) overnight and glucose was add to 25 mM and culture for 3-5 days, then coIP were carried using co-IP protocol.
as §1
5. Resuspend the cell pellet in ice-cold cell lysis buffer (1 mL per 1×10^7 cells) and incubate on ice for 10 min. 6. Sonicate cells in ice bath three times for 5 second pulses each. 7. Centrifuge at 13,000×g at 4° C. for 10 min, and transfer the supernatant to a fresh tube. Store the tube on ice for further use, or for long storage at −80° C.
8. Resuspend the magnetic beads by pipetting up and down for several times. 9. Transfer 20 μL of bead slurry to a fresh tube. Place the tube in a magnetic separation rack […]. Carefully remove the supernatant once the solution is clear. 10. […]
as §2

TXNIP mRNA = TXNIP mRNA expression (RT-PCR) in THP1 cells under 25 mM glucose; assay type: cell-based, human; details: THP1, 25 mM glucose, 5 uM compound, 72 h / three days (FIG. 13)
Protocol: FIGS. 9A-9B. FIG. 9A. […] THP1 cells were cultured in 25 mM glucose with the indicated concentrations of C1 for 72 h. Cell were collected for total RNA preparation. RT-PCR were performed and data shown are the mean+SEM from triplicates. Statistical analysis was performed using one-way ANOVA, *<0.0001. FIG. 9B. […] THP1 cells were cultured in 25 mM glucose and C1 (uM) as indicated for 72 hours and collected for total RNA preparation. RT-PCR was performed. Data shown are the mean+SEM from triplicates. Statistical analysis was performed using one-way ANOVA: *<0.02; **<0.0001.
FIG. 13. C1 analogs affects TXNIP mRNA expression in THP1 cells. THP1 cells were cultured in 25 mM glucose with 5 uM of compounds for 72 h. Total RNA was collected and RT-PCR was performed in triplicate and data shown are the mean+SEM. Statistical analysis was performed using one-way ANOVA: *<0.0001.
RNA extraction and quantitative RT-PCR. RNA was extracted using the Direct-zol™ RNA MiniPrep Plus (Zymo Research). […] Diluted cDNA was quantified using real-time PCR performed with Power SYBR Green qPCR MasterMix (Applied Biosystem) and 7500 real-time PCR system (Applied Biosystems). […]
RNA extraction and quantitative RT-PCR. […] Diluted cDNA was quantified using real-time PCR performed with Power SYBR Green qPCR MasterMix (Applied Biosystem) and 7500 real-time PCR system (Applied Biosystems). […]

Compound | effect on pre-formed TXNIP/TRX complex (co-IP band intensity) (TXNIP-TRX complex [1]) | TXNIP expression (TXNIP) | TXNIP expression (TXNIP; listed as Metformin) | HG-induced TXNIP-TRX co-IP band intensity (TXNIP-TRX complex [2]) | TXNIP mRNA expression (TXNIP mRNA)
CN(C)C(=N)N=C(N)N [metformin, reference compound] | does not have any effect on TXNIP/TRX complex | reduce TXNIP expression | can reduce the expression of TXNIP through the AMPK pathway | reduces the intensity of the band showing TXNIP-TRX binding | –
CC(=O)Nc1ccc(NC(=O)C(C)N2C(=O)c3ccncc3C2=O)cc1 (centres unmarked) [Compound A31] | – | – | – | – | displayed significant inhibitory effects on TXNIP mRNA expression
